Assay results published in US6248785A, “IL-8 receptor antagonists” (SmithKline Beecham Corporation, priority 1999, dated 2001).

Target: T1, recombinant IL-8 Rb, or Type II, receptor (permissive receptor) (Homo sapiens, UniProt P25025)
T1 construct: expressed in transfected cells; host or cells: Chinese hamster ovary (CHO) cells, membranes
T1 sequence (P25025 1-360): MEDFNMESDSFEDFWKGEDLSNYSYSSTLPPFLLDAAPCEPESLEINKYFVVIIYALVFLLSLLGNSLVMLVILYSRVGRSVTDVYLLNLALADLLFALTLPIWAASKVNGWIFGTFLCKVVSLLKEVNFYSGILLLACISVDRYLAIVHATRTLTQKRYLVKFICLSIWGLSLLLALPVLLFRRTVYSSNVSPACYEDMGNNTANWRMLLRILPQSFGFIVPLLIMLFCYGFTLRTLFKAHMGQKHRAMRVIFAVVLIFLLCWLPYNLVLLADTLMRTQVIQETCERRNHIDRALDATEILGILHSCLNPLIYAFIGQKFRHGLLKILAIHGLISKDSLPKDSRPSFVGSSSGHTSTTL
Test: IL-8 receptor binding assay, permissive model (125I IL-8 / 125I Gro-a, CHO membranes)
Conditions: recombinant human IL-8Rb membranes from Chinese hamster ovary cells; 125I IL-8 (0.25 nM) or 125I Gro-a; 1 hour at room temperature
From the text: [^125 I] IL-8 (human recombinant) is obtained from Amersham Corp., Arlington Heights, Ill., with specific activity 2000 Ci/mmol. Gro-a is obtained from NEN-New England Nuclear. All other chemicals are of analytical grade. High levels of recombinant human IL-8 type a and b receptors were individually expressed in Chinese hamster ovary cells as described previously (Holmes, et al., Science, 1991, 253, 1278). The Chinese hamster ovary membranes were homogenized according to a previously described protocol (Haour, et al., J Biol Chem., 249 pp 2195-2205 (1974)). Except that the homogenization buffer is changed to 10 mM Tris-HCL, 1 mM MgSO4, 0.5 mM EDTA (ethylene-diaminetetra-acetic acid), 1 mMPMSF (a-toluenesulphonyl fluoride), 0.5 mg/L Leupeptin, pH 7.5. Membrane protein concentration is determined using Pierce Co. micro-assay kit using bovine serum albumin as a standard. All assays are performed in a 96-well micro plate format. Each reaction mixture contains ^125 I IL-8 (0.25 nM) or ^125 I Gro-a and 0.5 μg/mL of IL-8Ra or 1.0 μg/mL of IL-8Rb membranes in 20 mM Bis-Trispropane and 0.4 mM Tris HCl buffers, pH 8.0, containing 1.2 mM MgSO4, 0.1 mM EDTA, 25 mM NaCl and 0.03% CHAPS. […] The filter is then dried and counted on the Betaplate liquid scintillation counter. […]

IC50 in the permissive models for IL-8 receptor inhibition: < 50 µg/mL
SMILES: N#Cc1ccc(NC(=C[N+](=O)[O-])Nc2ccccc2Br)c(O)c1 [Example 1, 1-Nitro-2-[2-hydroxy-4-cyanophenylamino]-2-[2-bromophenylamino]ethylene]
